Reference: ChEMBL document CHEMBL1201862, “PubChem BioAssay data set” (2004)
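Method: 48-hour compound exposure of cells in 96-well plates, five concentrations, linear interpolation of endpoints. Abbreviation: GI50, concentration required for 50% inhibition of growth.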 Activity calls are given as the source filed them. No stated cut-off is given here; in the data, active = GI50 up to about 1.1 µM and inactive = higher.

How the values were obtained:
Test in all cases: NCI anticancer screen, dose series, 48 h
[1] = system: IGROV-1
[2] = system: NCI-H226
[3] = system: ACHN
[4] = system: SF-295
[5] = system: OVCAR-8
[6] = system: TK-10
[7] = system: KM12
[8] = system: CCRF-CEM
[9] = system: COLO 205
[10] = system: LOX IMVI
[11] = system: RXF 393
[12] = system: SNB-19
[13] = system: SF-539
[14] = system: K562
[15] = system: SR
[16] = system: HCT-116
[17] = system: SW-620
[18] = system: NCI-H23

Measured: GI50

CCN(CC)c1c(C(=O)/C=C/c2ccccc2)c(-c2ccccc2)nn(C)c1=O
inactive: [1] 9.79 µM | [2] 93.1 µM | [3] 8.51 µM | [4] 6.01 µM | [5] 5.37 µM | [6] > 100 µM | [7] 4.18 µM | [8] 2.2 µM | [9] 5.81 µM | [10] 3.55 µM | [11] 3.98 µM | [12] 29.4 µM | [13] 21.3 µM | [14] 2.52 µM | [15] 3.21 µM

CCC1OCCN1C(C)C (stereo unspecified)
inactive: [1] > 100 µM | [3] > 100 µM | [4] > 100 µM | [16] 89.9 µM | [5] > 100 µM | [6] 42 µM | [17] > 100 µM | [18] 32.9 µM | [7] > 100 µM | [8] > 100 µM | [9] > 100 µM | [10] > 100 µM | [11] > 100 µM | [12] > 100 µM | [13] > 100 µM | [14] > 100 µM | [15] > 100 µM

COc1ccc(OC)c2c(C(=O)O)c(C(C)c3ccccc3)ccc12 (stereo unspecified)
inactive: [1] > 100 µM | [2] > 100 µM | [3] > 100 µM | [4] > 100 µM | [16] > 100 µM | [5] > 100 µM | [6] > 100 µM | [17] > 100 µM | [18] > 100 µM | [7] > 100 µM | [8] > 100 µM | [9] > 100 µM | [10] > 100 µM | [11] > 100 µM | [12] > 100 µM | [14] > 100 µM | [15] > 100 µM

O=c1c2cc([N+](=O)[O-])ccc2[nH]n1Cc1ccccc1Cl
inactive: [1] 80.2 µM | [2] 74.1 µM | [3] 46.1 µM | [4] > 100 µM | [16] 55.7 µM | [5] 75.7 µM | [6] 18.2 µM | [17] 88.9 µM | [18] 59.6 µM | [7] 55.7 µM | [8] 85.5 µM | [9] 73.3 µM | [10] > 100 µM | [11] 35.2 µM | [12] > 100 µM | [13] 98.4 µM | [14] 48.8 µM | [15] 43.5 µM

CC(C)(C)C1=CC(=NNC(=S)NCc2ccccc2)C=C(C(C)(C)C)C1=O
inactive: [1] > 100 µM | [2] 78.5 µM | [3] 67.1 µM | [4] 86.3 µM | [16] 60.5 µM | [5] > 100 µM | [6] > 100 µM | [17] > 100 µM | [18] 64 µM | [8] 52.1 µM | [9] 51.5 µM | [10] 73.8 µM | [11] 78.9 µM | [12] 71 µM | [13] > 100 µM | [14] 83 µM | [15] > 100 µM

CCOC(OCC)C(CC)[Se]c1ccccc1 (stereo unspecified)
inactive: [1] > 100 µM | [2] 27.3 µM | [3] > 100 µM | [4] > 100 µM | [16] 31.8 µM | [5] > 100 µM | [6] > 100 µM | [18] 7.13 µM | [7] > 100 µM | [8] 16.3 µM | [9] 39.8 µM | [10] 5.82 µM | [11] 55.2 µM | [12] > 100 µM | [13] > 100 µM | [14] > 100 µM | [15] 10.1 µM

CC(C)c1cccc(C(C)C)c1NC(=O)/C(Cc1nc2ccc(Cl)cc2nc1O)=N\NC(=O)C[N+](C)(C)C
inactive: [1] > 100 µM | [3] > 100 µM | [4] > 100 µM | [16] > 100 µM | [5] > 100 µM | [6] > 100 µM | [17] > 100 µM | [18] > 100 µM | [7] > 100 µM | [8] > 100 µM | [9] > 100 µM | [11] > 100 µM | [12] > 100 µM | [13] > 100 µM | [14] > 100 µM | [15] > 100 µM

COc1cc(Br)c(/C=N\c2cccc3ccc(OS(=O)(=O)c4cccc([N+](=O)[O-])c4)cc23)cc1OC
inactive: [1] 58.2 µM | [2] 20.4 µM | [3] 32.8 µM | [4] 20.4 µM | [16] 30.5 µM | [5] 24 µM | [17] 48.1 µM | [18] 12.5 µM | [7] 30.7 µM | [8] 12.2 µM | [9] 66.8 µM | [10] 29.8 µM | [11] 16.3 µM | [12] 60.1 µM | [13] 16.9 µM | [14] 21.1 µM | [15] 20.2 µM

O=c1[nH]ccc(CNC23CC4CC(CC(C4)C2)C3)c1O
inactive: [1] > 100 µM | [2] > 100 µM | [3] 93.5 µM | [4] 78.2 µM | [16] > 100 µM | [5] > 100 µM | [6] > 100 µM | [17] > 100 µM | [18] > 100 µM | [7] > 100 µM | [8] 41.5 µM | [9] > 100 µM | [11] 48.4 µM | [12] > 100 µM | [13] > 100 µM | [14] 88.3 µM | [15] 45.2 µM
